Assays:
[1] = refractive index (Na D-line) (dimensionless); xn = mol fraction of the nth substance listed; settings: 101 kPa, Liquid, Standard Abbe refractometry
[2] = xn = mol fraction of the nth substance listed; settings: 101 kPa, Liquid; for speed of sound: Pulse-echo method

Cc1ccc(Cl)cc1 [4-chlorotoluene] + CCCCCCCCCCO
Settings	mass density, [2] [kg/m3]	refractive index, [1]	speed of sound, [2] [m/s]	viscosity, [2] [mPa·s]
298.15 K, x1 = 0.0718	837.82	1.4376	1373.1	9.725
298.15 K, x1 = 0.1353	848.32	1.4405	1366.4	8.154
298.15 K, x1 = 0.1976	859.01	1.4437	1359.4	6.842
298.15 K, x1 = 0.2703	872.09	1.4477	1350.9	5.561
298.15 K, x1 = 0.341	885.46	1.4519	1342.3	4.546
298.15 K, x1 = 0.4103	899.31	1.4566	1333.9	3.733
298.15 K, x1 = 0.482	914.52	1.4618	1325	3.045
298.15 K, x1 = 0.5531	930.57	1.4676	1316.5	2.495
298.15 K, x1 = 0.6234	947.55	1.4738	1308.6	2.058
298.15 K, x1 = 0.7045	968.72	1.4818	1300.2	1.654
298.15 K, x1 = 0.7497	981.35	1.4866	1296.1	1.472
298.15 K, x1 = 0.8196	1002.21	1.4947	1291	1.239
298.15 K, x1 = 0.8907	1025.23	1.5035	1288	1.047
298.15 K, x1 = 0.9556	1048.23	1.5124	1287.5	0.907
298.15 K, x1 = 1	1065.11	1.5188	1289.1	0.828
303.15 K, x1 = 0.0718	834.11	1.4357	1357.3	8.053
303.15 K, x1 = 0.1353	844.43	1.4387	1350.1	6.766
303.15 K, x1 = 0.1976	854.95	1.4418	1342.7	5.705
303.15 K, x1 = 0.2703	867.83	1.4458	1333.7	4.658
303.15 K, x1 = 0.341	881.03	1.4501	1324.7	3.825
303.15 K, x1 = 0.4103	894.71	1.4547	1315.9	3.162
303.15 K, x1 = 0.482	909.75	1.46	1307	2.608
303.15 K, x1 = 0.5531	925.66	1.4657	1298.4	2.157
303.15 K, x1 = 0.6234	942.5	1.4719	1290.5	1.798
303.15 K, x1 = 0.7045	963.53	1.4798	1282.3	1.472
303.15 K, x1 = 0.7497	976.09	1.4846	1278.3	1.325
303.15 K, x1 = 0.8196	996.85	1.4926	1273	1.134
303.15 K, x1 = 0.8907	1019.78	1.5015	1269.5	0.972
303.15 K, x1 = 0.9556	1042.69	1.5104	1269.1	0.85
303.15 K, x1 = 1	1059.51	1.5166	1271	0.784
308.15 K, x1 = 0.0718	830.35	1.4337	1338.2	6.713
308.15 K, x1 = 0.1353	840.48	1.4367	1330.8	5.652
308.15 K, x1 = 0.1976	850.84	1.4398	1323.1	4.769
308.15 K, x1 = 0.2703	863.56	1.4439	1313.8	3.909
308.15 K, x1 = 0.341	876.62	1.4481	1304.8	3.23
308.15 K, x1 = 0.4103	890.19	1.4527	1295.9	2.678
308.15 K, x1 = 0.482	905.12	1.458	1286.9	2.224
308.15 K, x1 = 0.5531	920.91	1.4637	1278.3	1.851
308.15 K, x1 = 0.6234	937.62	1.4698	1270.5	1.558
308.15 K, x1 = 0.7045	958.46	1.4776	1262.5	1.289
308.15 K, x1 = 0.7497	970.92	1.4824	1258.5	1.166
308.15 K, x1 = 0.8196	991.5	1.4902	1253.9	1.008
308.15 K, x1 = 0.8907	1014.28	1.499	1250.7	0.875
308.15 K, x1 = 0.9556	1037.1	1.5078	1251	0.781
308.15 K, x1 = 1	1053.9	1.5138	1253.1	0.73

Reference: the NIST ThermoML archive (doi:10.1007/s10765-011-0995-x)
